In US20230391752A1, “PYRROLIDINE-3-CARBOXAMIDE DERIVATIVES AND RELATED USES” (Chulalongkorn University, priority 2020, published 2023):

tested on: HBV; assay: In vitro anti-HBV activity in HepG2.2.15 cell line (intracellular HBV DNA by qPCR at 1 μM); format: cell-based; conditions: Hepatitis B virus, 144 h; HepG2.2.15 cells, 1 μM compound, 6 days, intracellular HBV DNA as percentage compared to vehicle control (0.5% DMSO)
Protocol: The stable transfected HBV cell line, called HepG2.2.15 cells was a valuable model with high reproducibility and commonly used for drug screening. To identify the anti-HBV activity, HepG2.2.15 cells were seeded at 5×10^5 cells/well with high glucose Dulbecco's modified Eagle medium (DMEM) containing 10% heat inactivated fetal bovine serum (FBS), 300 mg/L G418, non-essential amino acids (NEAA) 100 units/ml Antibiotic-Antimycotic, and allowed to stand for an overnight in an incubator set at 37° C. and 5% C02. HepG2.2.15 cells in each well were treated with the medium containing a compound (1 μM with 0.5% dimethyl sulfoxide (DMSO final concentration) for three days in the incubator. After that the medium was removed and fresh medium containing the compound was added to the cells for another 3 days. After 6 days of treatment, intracellular HBV DNA was extracted and determined by using quantitative real-time PCR (qPCR) technique with specific primers. Intrahepatic HBV DNA viral load was reported as percentage compared to vehicle control (0.5% DMSO) as shown in Table A.
“B” means % ranging between 80 and 90; “C” means % ranging between 70 and 80; “D” means % ranging between 60 and 70; “E” means % ranging between 45 and 60, “F” means %<45.

| Structure (SMILES) | activity at 1 µM |
| --- | --- |
| Cc1ccc(C(=O)N2CC[C@H](C(=O)Nc3cc(F)c(F)c(F)c3)C2)[nH]1 [Example 1, (S)-1-(5-methyl-1H-pyrrole-2-carbonyl)-N-(3,4,5-trifluorophenyl)pyrrolidine-3-carboxamide] | 45 to 60% |
| O=C(Nc1cc(F)c(F)c(F)c1)[C@H]1CCN(C(=O)c2sccc2Cl)C1 [Example 3, (S)-1-(3-chlorothiophene-2-carbonyl)-N-(3,4,5-trifluorophenyl)pyrrolidine-3-carboxamide] | 70 to 80% |
| Cc1cc(Cl)c(C(=O)N2CC[C@H](C(=O)Nc3cc(F)c(F)c(F)c3)C2)s1 [Example 5, (S)-1-(3-chloro-5-methylthiophene-2-carbonyl)-N-(3,4,5-trifluorophenyl)pyrolidine-3-carboxamide] | 80 to 90% |
| O=C(Nc1cc(F)c(F)c(F)c1)[C@H]1CCN(C(=O)c2cccc3cc[nH]c23)C1 [Example 6, (S)-1-(1H-indole-7-carbonyl)-N-(3,4,5-trifluorophenyl)pyrrolidine-3-carboxamide] | > 90% |
| O=C(Nc1cc(F)c(F)c(F)c1)[C@H]1CCN(C(=O)c2cc3sccc3[nH]2)C1 [Example 7, (S)-1-(4H-thieno[3,2-b]pyrrole-5-carbonyl)-N-(3,4,5-trifluoro-phenyl)pyrrolidine-3-carboxamide] | 60 to 70% |
| N#Cc1ccc2[nH]c(C(=O)N3CC[C@H](C(=O)Nc4cc(F)c(F)c(F)c4)C3)cc2c1 [Example 8, (S)-1-(5-cyano-1H-indole-2-carbonyl)-N-(3,4,5-trifluorophenyl)pyrrolidine-3-carboxamide] | 80 to 90% |
| O=C(Nc1cc(F)c(F)c(F)c1)[C@H]1CCN(C(=O)c2cc3occc3[nH]2)C1 [Example 9, (S)-1-(4H-furo[3,2-b]pyrrole-5-carbonyl)-N-(3,4,5-trifluorophenyl)pyrrolidine-3-carboxamide] | 80 to 90% |
| O=C(Nc1cc(F)c(F)c(Br)c1)[C@H]1CCN(C(=O)c2cc3ccccc3[nH]2)C1 [Example 10, (S)—N-(3-bromo-4,5-difluorophenyl)-1-(1H-indole-2-carbonyl)pyrrolidine-3-carboxamide] | 70 to 80% |
| O=C(Nc1cc(F)c(F)c(F)c1)[C@H]1CCN(C(=O)c2ccc(C(F)F)[nH]2)C1 [Example 11, (S)-1-(5-(difluoromethyl)-1H-pyrrole-2-carbonyl)-N-(3,4,5-trifluorophenyl)pyrrolidine-3-carboxamide] | 70 to 80% |
| COc1cc2cc(C(=O)N3CC[C@H](C(=O)Nc4cc(F)c(F)c(F)c4)C3)[nH]c2cn1 [Example 12, (S)-1-(5-methoxy-1H-pyrrolo[2,3-c]pyridine-2-carbonyl)-N-(3,4,5-trifluorophenyl)pyrrolidine-3-carboxamide] | 80 to 90% |
| Cc1ccc2cc(C(=O)N3CC[C@H](C(=O)Nc4cc(F)c(F)c(F)c4)C3)[nH]c2c1 [Example 13, (S)-1-(6-methyl-1H-indole-2-carbonyl)-N-(3,4,5-trifluorophenyl)pyrrolidine-3-carboxamide] | 60 to 70% |
| O=C(Nc1cc(F)c(F)c(F)c1)[C@H]1CCN(C(=O)c2cc3ncccc3[nH]2)C1 [Example 14, (S)-1-(1H-pyrrolo[3,2-b]pyridine-2-carbonyl)-N-(3,4,5-trifluorophenyl)pyrrolidine-3-carboxamide] | 70 to 80% |
| Cc1cc(C(=O)N2CC[C@H](C(=O)Nc3cc(F)c(F)c(F)c3)C2)[nH]c1C [Example 15, (S)-1-(4,5-dimethyl-1H-pyrrole-2-carbonyl)-N-(3,4,5-trifluorophenyl)pyrrolidine-3-carboxamide] | 60 to 70% |
| O=C(Nc1cc(F)c(F)c(F)c1)[C@H]1CCN(C(=O)c2[nH]ccc2Cl)C1 [Example 16, (S)-1-(3-chloro-1H-pyrrole-2-carbonyl)-N-(3,4,5-trifluorophenyl)pyrrolidine-3-carboxamide] | > 90% |
| C[C@H]1[C@@H](C(=O)Nc2cc(F)c(F)c(F)c2)CCN1C(=O)c1cc2cccnc2[nH]1 [Example 17, (2S,3S)-2-methyl-1-(1H-pyrrolo[2,3-b]pyridine-2-carbonyl)-N-(3,4,5-trifluorophenyl) pyrrolidine-3-carboxamide] | 60 to 70% |
| N#Cc1cc(NC(=O)[C@H]2CCN(C(=O)c3cc4cccnc4[nH]3)C2)ccc1F [Example 18, (S)—N-(3-cyano-4-fluorophenyl)-1-(1H-pyrrolo[2,3-b]pyridine-2-carbonyl)pyrrolidine-3-carboxamide] | 70 to 80% |
| C[C@H]1[C@@H](C(=O)Nc2ccc(F)c(C#N)c2)CCN1C(=O)c1cc2cccnc2[nH]1 [Example 21, (2S,3S)—N-(3-cyano-4-fluorophenyl)-2-methyl-1-(1H-pyrrolo[2,3-b]pyridine-2-carbonyl) pyrrolidine-3-carboxamide] | > 90% |

| Structure (SMILES) | activity at 1 µM |
| --- | --- |
| N#Cc1cc(NC(=O)[C@H]2CCN(C(=O)c3ccc(Cl)[nH]3)C2)ccc1F [Example 22, (S)-1-(5-chloro-1H-pyrrole-2-carbonyl)-N-(3-cyano-4-fluorophenyl)pyrrolidine-3-carboxamide] | 60 to 70% |
| O=C(Nc1cc(F)c(F)c(F)c1)[C@H]1CCN(C(=O)c2cc3nccnc3[nH]2)C1 [Example 23, (S)-1-(5H-pyrrolo[2,3-b]pyrazine-6-carbonyl)-N-(3,4,5-trifluorophenyl)pyrrolidine-3-carboxamide] | 70 to 80% |
| Cc1cc(NC(=O)[C@H]2CCN(C(=O)c3cc4cccnc4[nH]3)C2)ccc1F [Example 24, (S)—N-(4-fluoro-3-methylphenyl)-1-(1H-pyrrolo[2,3-b]pyridine-2-carbonyl)pyrrolidine-3-carboxamide] | 60 to 70% |
| O=C(Nc1cc(F)c(F)c(F)c1)[C@H]1CCN(C(=O)c2nc3ccccc3[nH]2)C1 [Example 25, (S)-1-(1H-benzo[d]imidazole-2-carbonyl)-N-(3,4,5-trifluorophenyl)pyrrolidine-3-carboxamide] | 60 to 70% |
| O=C(Nc1cc(F)c(F)c(F)c1)[C@H]1CCN(C(=O)c2c[nH]c3ccccc23)C1 [Example 26, (S)-1-(1H-indole-3-carbonyl)-N-(3,4,5-trifluorophenyl)pyrrolidine-3-carboxamide] | 80 to 90% |
| O=C(Nc1cc(F)c(F)c(F)c1)[C@H]1CCN(C(=O)c2ncc[nH]2)C1 [Example 27, (S)-1-(1H-imidazole-2-carbonyl)-N-(3,4,5-trifluorophenyl)pyrrolidine-3-carboxamide] | > 90% |
| O=C(Nc1cc(F)c(F)c(F)c1)[C@H]1CCN(C(=O)c2nccs2)C1 [Example 28, (S)-1-(thiazole-2-carbonyl)-N-(3,4,5-trifluorophenyl)pyrrolidine-3-carboxamide] | > 90% |
| Cc1c[nH]nc1C(=O)N1CC[C@H](C(=O)Nc2cc(F)c(F)c(F)c2)C1 [Example 29, (S)-1-(4-methyl-1H-pyrazole-3-carbonyl)-N-(3,4,5-trifluorophenyl)pyrrolidine-3-carboxamide] | > 90% |
| O=C(Nc1cc(F)c(F)c(F)c1)[C@H]1CCN(C(=O)c2cnc[nH]2)C1 [Example 30, (S)-1-(1H-imidazole-5-carbonyl)-N-(3,4,5-trifluorophenyl)pyrrolidine-3-carboxamide] | > 90% |
| Cc1n[nH]cc1C(=O)N1CC[C@H](C(=O)Nc2cc(F)c(F)c(F)c2)C1 [Example 31, (S)-1-(3-methyl-1H-pyrazole-4-carbonyl)-N-(3,4,5-trifluorophenyl)pyrrolidine-3-carboxamide] | > 90% |
| O=C(Nc1ccc(F)c(Cl)c1)[C@H]1CCN(C(=O)c2ncc[nH]2)C1 [Example 32, (S)—N-(3-chloro-4-fluorophenyl)-1-(1H-imidazole-2-carbonyl)pyrrolidine-3-carboxamide] | 80 to 90% |
| Cc1ccc(C(=O)N2CC[C@H](C(=O)Nc3ccc(F)c(Cl)c3)C2)[nH]1 [Example 33, (S)—N-(3-chloro-4-fluorophenyl)-1-(5-methyl-1H-pyrrole-2-carbonyl)pyrrolidine-3-carboxamide] | 80 to 90% |
| Cc1cc(C)c(C(=O)N2CC[C@H](C(=O)Nc3cc(F)c(F)c(F)c3)C2)[nH]1 [Example 34, (S)-1-(3,5-dimethyl-1H-pyrrole-2-carbonyl)-N-(3,4,5-trifluorophenyl)pyrrolidine-3-carboxamide] | > 90% |
| O=C(Nc1cc(F)c(F)c(F)c1)[C@H]1CCN(C(=O)c2ccc3cc[nH]c3c2)C1 [Example 35, (S)-1-(1H-indole-6-carbonyl)-N-(3,4,5-trifluorophenyl)pyrrolidine-3-carboxamide] | 70 to 80% |
| O=Cc1c[nH]c2cc(C(=O)N3CC[C@H](C(=O)Nc4cc(F)c(F)c(F)c4)C3)ccc12 [Example 36, (S)-1-(3-formyl-1H-indole-6-carbonyl)-N-(3,4,5-trifluorophenyl)pyrrolidine-3-carboxamide] | 70 to 80% |
| O=C(Nc1cc(F)c(F)c(F)c1)[C@H]1CCN(C(=O)c2ccc3c(CNCCO)c[nH]c3c2)C1 [Example 37, (S)-1-(3-(((2-hydroxyethyl)amino)methyl)-1H-indole-6-carbonyl)-N-(3,4,5-trifluorophenyl) pyrrolidine-3-carboxamide] | > 90% |
| CC(=O)c1c[nH]c(C(=O)N2CC[C@H](C(=O)Nc3cc(F)c(F)c(F)c3)C2)c1 [Example 38, (S)-1-(4-acetyl-1H-pyrrole-2-carbonyl)-N-(3,4,5-trifluorophenyl)pyrrolidine-3-carboxamide] | > 90% |
